Active and inactive are the calls of the source.
How the values were obtained:
[1] = target: Serine/threonine-protein kinase pim-1 (Homo sapiens, UniProt P11309); type: functional
[2] = target: Serine/threonine-protein kinase pim-3 (Homo sapiens, UniProt Q86V86); type: functional;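 further: value obtained as one member of a broad kinase panel profiling effort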
[3] = target: Dual specificity protein kinase CLK4 (Homo sapiens, UniProt Q9HAZ1); type: functional
cells = type: functional
[4] = A Cell Based Secondary Assay to Explore Cytotoxicity in THP-1 Cells of Compounds that Modulate Mycobacterium tuberculosis in Media Containing Glycerol versus Media without Glycerol (2).; type: functional
[5] = Vero cell cytotoxicity, cytotoxicity control for M. tuberculosis inhibitor project, purified and synthesized samples, set 3 (AID 504684); type: functional
[6] = HepG2 cell cytotoxicity, cytotoxicity control, set 4 (AID 504910); type: functional; conditions: Mycobacterium tuberculosis
[7] = THP-1 cell cytotoxicity, cytotoxicity control, set 4 (AID 504911); type: functional; conditions: Mycobacterium tuberculosis
[8] = A Cell Based Secondary Assay to Explore Cytotoxicity in HepG2 Cells of Compounds that Modulate Mycobacterium tuberculosis in Media Containing Glycerol versus Media without Glycerol (2).; type: functional
[9] = HepG2 cell cytotoxicity, dose response, cytotoxicity control, set 3 (AID 504853); type: functional; conditions: Mycobacterium tuberculosis
[10] = THP-1 cell cytotoxicity, dose response, cytotoxicity control, set 3 (AID 504852); type: functional; conditions: Mycobacterium tuberculosis
[11] = target: DNA dC->dU-editing enzyme APOBEC-3G (Homo sapiens, UniProt Q9HC16); test: APOBEC3G deaminase inhibitors, SAR follow-up, biochemical, fluorescence, single-stranded DNA substrate (AID 602136); type: functional; conditions: read-out: IC50_Mean
[12] = target: DNA dC->dU-editing enzyme APOBEC-3A (Homo sapiens, UniProt P31941); test: SAR analysis of small molecule inhibitors of APOBEC3A DNA Deaminase via a fluorescence-based single-stranded DNA deaminase assay.; type: functional; conditions: read-out: IC50_Mean
[13] = inhibitors of firefly luciferase expression or activity, dose response, H4 neuroglioma cells, luminescence (AID 1990); type: functional, cell-based
BJ [14] = test: cytotoxicity toward BJ-TERT fibroblasts, dose response, cell-based, RAS-independent, luminescence (AID 1933); type: functional; conditions: Homo sapiens
[15] = Luminescence Cell-Based Dose Response HTS to Identify Inhibitors of 5'UTR Stem-Loop Driven Prion Protein mRNA Translation in H4 Neuroglioblastoma Cells. [Related pubchem assays: 1827 (Project Summary), 1813 (Primary HTS)]; type: functional
[16] = inhibitors of SNCA 5'UTR-driven reporter translation, confirmation, H4 neuroglioma cells, luminescence (AID 1988); type: functional, cell-based
BJ [17] = test: cells; type: functional, cell-based; conditions: Homo sapiens
BJ [18] = test: cytotoxicity toward BJ-TERT-LT-ST fibroblasts, dose response, cell-based, RAS-independent, luminescence (AID 1935); type: functional; conditions: Homo sapiens;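 further: BJ fibroblasts immortalized with TERT plus LT and ST oncogenes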
[19] = cytotoxicity toward DRD oncogenic fibroblasts, dose response, cell-based, non-viral oncogenic, luminescence (AID 1934); type: functional; conditions: Homo sapiens
[20] = cytotoxicity in HEK-293T cells, dose response, cytotoxicity control for TCR NF-kB inhibitor project, luminescence, T-cell screen hits (AID 489026); type: functional, cell-based;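 further: cells exposed to compound about 14 hours before the viability readout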
[21] = target: T1, High affinity choline transporter 1 (Homo sapiens, UniProt Q9GZV3); test: CHT activators, dose response, cell-based, 10-point CRC, membrane potential dye (AID 602376); type: functional
T1 sequence (Q9GZV3 whole entry): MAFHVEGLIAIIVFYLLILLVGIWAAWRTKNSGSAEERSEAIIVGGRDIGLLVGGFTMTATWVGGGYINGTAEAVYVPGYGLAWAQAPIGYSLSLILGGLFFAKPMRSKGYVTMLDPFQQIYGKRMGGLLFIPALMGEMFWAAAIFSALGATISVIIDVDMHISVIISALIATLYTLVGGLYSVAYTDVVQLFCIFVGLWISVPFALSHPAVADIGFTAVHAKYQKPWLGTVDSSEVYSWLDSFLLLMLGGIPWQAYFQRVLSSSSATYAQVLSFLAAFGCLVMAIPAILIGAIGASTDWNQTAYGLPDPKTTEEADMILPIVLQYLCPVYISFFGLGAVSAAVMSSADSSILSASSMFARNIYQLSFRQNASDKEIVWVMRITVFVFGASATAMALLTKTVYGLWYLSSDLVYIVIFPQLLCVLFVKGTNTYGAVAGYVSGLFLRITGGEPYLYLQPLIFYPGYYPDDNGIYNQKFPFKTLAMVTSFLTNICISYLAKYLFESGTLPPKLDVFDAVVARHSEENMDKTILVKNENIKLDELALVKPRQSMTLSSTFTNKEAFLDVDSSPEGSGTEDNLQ

Serine/threonine-protein kinase pim-1, sequence (P11309 whole entry): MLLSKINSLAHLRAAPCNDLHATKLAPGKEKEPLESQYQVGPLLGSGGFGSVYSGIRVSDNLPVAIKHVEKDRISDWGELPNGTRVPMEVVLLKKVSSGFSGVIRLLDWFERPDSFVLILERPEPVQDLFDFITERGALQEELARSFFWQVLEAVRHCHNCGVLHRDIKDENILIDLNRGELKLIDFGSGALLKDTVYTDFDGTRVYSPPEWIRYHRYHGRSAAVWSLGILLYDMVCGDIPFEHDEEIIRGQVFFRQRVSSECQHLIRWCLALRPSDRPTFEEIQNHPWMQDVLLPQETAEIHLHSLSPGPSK
DNA dC->dU-editing enzyme APOBEC-3A, sequence (P31941 whole entry): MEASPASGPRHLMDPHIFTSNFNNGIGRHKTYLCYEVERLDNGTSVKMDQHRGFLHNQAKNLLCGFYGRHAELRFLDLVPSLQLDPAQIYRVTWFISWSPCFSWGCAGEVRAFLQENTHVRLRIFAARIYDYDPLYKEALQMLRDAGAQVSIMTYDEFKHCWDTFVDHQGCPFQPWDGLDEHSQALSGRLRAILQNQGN
DNA dC->dU-editing enzyme APOBEC-3G, sequence (Q9HC16 whole entry): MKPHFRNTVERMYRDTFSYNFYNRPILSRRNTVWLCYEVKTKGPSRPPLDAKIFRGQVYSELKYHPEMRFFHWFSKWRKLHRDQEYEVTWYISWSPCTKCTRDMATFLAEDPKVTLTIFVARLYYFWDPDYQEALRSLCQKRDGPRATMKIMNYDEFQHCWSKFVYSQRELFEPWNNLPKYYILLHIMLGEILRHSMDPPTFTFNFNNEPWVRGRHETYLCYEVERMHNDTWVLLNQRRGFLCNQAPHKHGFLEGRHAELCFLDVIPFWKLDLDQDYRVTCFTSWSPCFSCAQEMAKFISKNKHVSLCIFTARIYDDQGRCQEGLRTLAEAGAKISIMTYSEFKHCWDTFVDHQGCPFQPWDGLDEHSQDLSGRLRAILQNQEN
Dual specificity protein kinase CLK4, sequence (Q9HAZ1 whole entry): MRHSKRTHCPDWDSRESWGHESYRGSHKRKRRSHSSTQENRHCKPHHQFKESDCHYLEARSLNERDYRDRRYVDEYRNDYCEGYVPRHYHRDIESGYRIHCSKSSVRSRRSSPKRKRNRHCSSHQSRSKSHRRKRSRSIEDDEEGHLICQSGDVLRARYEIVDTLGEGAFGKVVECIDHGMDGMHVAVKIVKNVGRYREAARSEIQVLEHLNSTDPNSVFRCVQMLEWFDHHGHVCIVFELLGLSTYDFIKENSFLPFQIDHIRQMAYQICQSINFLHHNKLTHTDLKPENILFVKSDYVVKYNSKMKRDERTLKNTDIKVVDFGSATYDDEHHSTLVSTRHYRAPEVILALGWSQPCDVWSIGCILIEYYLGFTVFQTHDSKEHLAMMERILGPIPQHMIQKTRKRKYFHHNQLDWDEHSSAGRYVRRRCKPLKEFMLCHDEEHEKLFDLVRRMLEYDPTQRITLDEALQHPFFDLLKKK

For `O=c1[nH]cnc2c(-c3ccccc3)c(C(F)(F)F)sc12`, the Ki [1] was 1.26 µM (active), the Ki [2] was 2.51 µM (active) and the Ki [3] was 2 µM (active).
For `Nc1c(C(=O)NC2CCCCC2)nsc1C(=O)OCC(=O)NC1CCCCC1`, the IC50 (cells) was 1.88 µM (active), the CC50 [4] was > 100 µM (active) and the CC50 [5] was > 100 µM (active). The CC50 [6] was > 50 µM (active), the CC50 [7] was > 100 µM (active) and the CC50 [8] was > 50 µM (active). For the same compound, the CC50 [9] was > 50 µM (active) and the CC50 [10] was > 100 µM (active).
With `CC(=O)c1c(C)[nH]c(C(=O)CN(C)CC(=O)Nc2ccccc2Cl)c1C` the IC50 [11] was > 99 µM (inactive) and the IC50 [12] was > 99 µM (inactive).
For `COc1ccc(OC)c(NS(=O)(=O)c2ccc(N3CCCC3=O)cc2)c1`, the EC50 [13] was 3.37 µM (active), the EC50 (BJ [14]) was 0.812 µM (active) and the EC50 [15] was 7.75 µM (active). For the same compound, the EC50 [16] was 0.247 µM (active), the EC50 (BJ [17]) was 27.9 µM (inconclusive) and the EC50 (BJ [18]) was 1.26 µM (inconclusive). For the same compound, the EC50 [19] was 0.463 µM (active), the IC50 [20] was > 80 µM (inactive) and the EC50 [21] was 22.1 µM (active).
